In one assay the target is wild-type EP4R (Homo sapiens, UniProt P35408). In words: cell-based.
Assay [1] deals with T1, EP4R (Homo sapiens, UniProt P35408).
T1 construct: Tango fusion cassette (only 'tango' is printed); expressed in transfected cells; host or cells: HTLA cells (tTA-dependent luciferase reporter, β-arrestin2-TEV fusion)
Description: PRESTO-Tango β-arrestin2 recruitment assay. It counts as cell-based. Background: Recruitment of arrestin is a read-out of receptor activation apart from second messengers.

Assay [2] has as its target T1, EP4R. Description: cell-based.
Assay [3] has as its target T1, EP4R. In words: biochemical. It counts as binding.
The target of assay [4] is T2, Thromboxane A2 (TP) receptor (Homo sapiens, UniProt P21731).
T2 sequence (P21731 1-343): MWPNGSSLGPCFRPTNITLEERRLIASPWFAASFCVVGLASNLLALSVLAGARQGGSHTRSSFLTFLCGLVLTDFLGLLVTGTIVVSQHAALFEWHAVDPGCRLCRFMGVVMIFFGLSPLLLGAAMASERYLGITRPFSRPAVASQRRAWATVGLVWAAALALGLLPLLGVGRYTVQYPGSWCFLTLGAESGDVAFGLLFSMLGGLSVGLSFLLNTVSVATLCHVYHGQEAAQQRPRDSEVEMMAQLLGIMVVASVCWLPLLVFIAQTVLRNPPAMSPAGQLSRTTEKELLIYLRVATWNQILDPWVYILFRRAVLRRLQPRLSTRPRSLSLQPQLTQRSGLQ
In words: Functional cAMP production assay, TP receptor. It counts as cell-based. The settings on record: agonist alone, replicate columns. (cAMP levels reflect the balance of adenylyl cyclase and phosphodiesterase activity.)

Assay [5] addresses T3, prostaglandin D2 (PGD2) receptor (Homo sapiens, UniProt Q9Y5Y4).
T3 sequence (Q9Y5Y4 1-395): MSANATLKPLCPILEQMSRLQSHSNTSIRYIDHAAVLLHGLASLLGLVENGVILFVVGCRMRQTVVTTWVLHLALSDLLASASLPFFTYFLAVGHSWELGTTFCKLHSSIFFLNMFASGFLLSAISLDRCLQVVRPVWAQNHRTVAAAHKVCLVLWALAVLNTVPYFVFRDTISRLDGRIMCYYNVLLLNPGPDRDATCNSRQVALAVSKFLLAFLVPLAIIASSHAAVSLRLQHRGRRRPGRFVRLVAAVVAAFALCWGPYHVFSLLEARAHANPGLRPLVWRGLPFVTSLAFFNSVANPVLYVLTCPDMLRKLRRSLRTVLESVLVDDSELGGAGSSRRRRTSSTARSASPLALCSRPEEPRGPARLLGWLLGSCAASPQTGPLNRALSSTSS
In words: Functional cAMP production assay, PGD2 receptor. The conditions noted are these: replicate values. In kind it is cell-based.

The next assay has as its target T4, EP4R R316A mutant (Homo sapiens, UniProt P35408, R316A).
T4 construct: expressed in transfected cells; host or cells: HEK cells, transient
Description: BRET EP4R-arrestin interaction reporter assay, R316A mutant. In kind it is cell-based. The conditions noted are these: agonist mode. The text has this: three independent experiments. Source data are provided as a Source Data file.
(1 picture or pasted object on this page, not shown here)
A general note: In BRET a luciferase serves as donor, and the signal depends on an acceptor being close.

Molecules are shown by their SMILES. Several values for one entry are separate records, joined by “and”; a condition that tells them apart may be missing. Equal values may be shown once.

wild-type EP4R, sequence (P35408 whole entry): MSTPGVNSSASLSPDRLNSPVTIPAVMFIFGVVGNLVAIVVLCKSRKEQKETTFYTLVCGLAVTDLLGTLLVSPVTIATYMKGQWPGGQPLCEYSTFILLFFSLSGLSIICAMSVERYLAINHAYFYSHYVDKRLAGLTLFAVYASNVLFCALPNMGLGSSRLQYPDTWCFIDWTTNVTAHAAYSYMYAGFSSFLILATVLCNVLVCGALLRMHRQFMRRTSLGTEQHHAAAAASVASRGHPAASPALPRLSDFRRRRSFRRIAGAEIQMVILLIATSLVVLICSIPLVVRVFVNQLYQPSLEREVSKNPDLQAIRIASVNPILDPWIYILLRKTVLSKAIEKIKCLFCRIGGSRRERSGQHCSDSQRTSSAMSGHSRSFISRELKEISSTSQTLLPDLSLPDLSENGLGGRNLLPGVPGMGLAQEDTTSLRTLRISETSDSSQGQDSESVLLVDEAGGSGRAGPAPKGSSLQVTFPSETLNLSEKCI
T1 sequence (P35408 whole entry, the tested form may be a part): as the sequence (P35408 whole entry) above
T4 sequence (P35408 whole entry R316A): as the sequence (P35408 whole entry) above, with R316A counted along it

What is called IC50 is the midpoint of a concentration-inhibition curve. The low end stands for higher potency, the high end for lower potency. Broadly, the Ki is a measure of affinity in units of concentration, obtained from inhibition or displacement. In the case of `Cc1cc(C(=O)N[C@H]2CC[C@H](C(=O)O)CCC2(F)F)c(C)n1-c1ccccc1` [Compound 83, CC1=CC(C(=O)N[C@H]2CC[C@@H](CCC2(F)F)C(=O)O)=C(C)N1C=3C=CC=CC3], the figures for the IC50 against wild-type EP4R and on EP4R [1] (PRESTO-Tango IC50 (nM)) were 3.39 µM and over 10000 nM, respectively. The Ki is 0.678 µM at wild-type EP4R and over 10 µM on EP4R [3]. On EP4R [1], the “PRESTO-Tango -logIC50” value is given as “unstable”. The Kb at EP4R [2] was over 10 µM.

`CCCCC[C@H](O)/C=C/[C@@H]1[C@@H](C/C=C\CCCC(=O)O)[C@H]2CO[C@@H]1C2` [Compound U46619]: the “Thromboxane Receptor response, U46619 alone” value is 101.694 and 84.622 and 99.9733 in assay [4] (Log[Drug] -4.52); 98.3839 and 68.3538 and 108.147 and 95.8866 and 103.858 and 102.233 and 110.843 and 96.4513 and 100.005 and 98.4577 and 94.7206 and 109.077 in assay [4] (Log[Drug] -5); 90.8596 and 73.8682 and 91.1581 and 74.0123 and 88.5137 and 87.193 and 76.6016 and 83.785 and 87.9816 and 86.9707 and 87.4905 in assay [4] (Log[Drug] -5.52); 73.0479 and 61.333 and 83.5479 and 72.2309 and 75.4547 and 85.5682 and 93.0317 and 74.9476 and 75.1314 and 67.4734 and 82.2643 in assay [4] (Log[Drug] -6); 53.1945 and 46.9117 and 56.4473 and 51.2866 and 54.1589 and 49.4671 and 53.794 and 49.5996 and 46.1382 and 46.7815 and 52.9845 and 63.6908 in assay [4] (Log[Drug] -6.52); 26.7811 (2×) and 28.7836 and 26.1246 and 27.7368 and 28.2234 and 28.3716 and 27.3608 and 24.4507 and 37.3892 in assay [4] (Log[Drug] -7). Moreover, the “Thromboxane Receptor response, U46619 alone” value in assay [4] (Log[Drug] -7.52) is 6.98 and 11.6509 and 14.4408 and 11.9391 and 9.265 and 14.6944 and 12.5961 and 11.3627; in assay [4] (Log[Drug] -8) it was 3.852 and 4.407 and 5.259 and 6.346 and 4.095 and 3.487 and 3.973 and 12.9637 and 7.1283 and 8.507 and 7.772 and 8.062; in assay [4] (Log[Drug] -8.52) it was 0.6979 and 0.4256 and 1.264 and 1.489 and 0.4372 and 0.7674 and -0.6982 and -0.1162 and -0.5757 and -0.4127; in assay [4] (Log[Drug] -9) it was 1.749 and 1.539 and -0.4127 and -0.8139 and 0.03755 and 0.2374 and 1.155 and 2.074 and -0.008962 and 0.4505 and -0.2293.

Take `CCCCC[C@H](O)/C=C/[C@H]1C(=O)C[C@H](O)[C@@H]1C/C=C\CCCC(=O)O` [PGD2]: the “Prostaglandin D2 receptor response, drug alone” value is 0.6033 and 0.644 and 0.6961 and 0.6919 in assay [5] (Log[Drug] -7); 0.797 and 0.93 and 0.9088 and 0.9243 and 0.8431 and 0.8125 and 0.8754 and 0.8197 and 0.9698 and 0.7088 and 0.7525 and 0.7962 in assay [5] (Log[Drug] -7.52); 0.9354 and 1 and 1.006 and 1.122 and 0.9207 and 0.9404 and 0.8901 and 0.9489 and 0.8787 and 1.018 and 0.7261 and 1.1394 in assay [5] (Log[Drug] -8); 0.9328 and 0.9897 and 1.022 and 0.9062 and 0.7756 and 1.181 and 0.8387 and 1.0826 and 1.099 and 1.025 and 0.9559 and 0.8192 in assay [5] (Log[Drug] -8.52); 1.112 and 0.9671 and 1.1328 and 0.9787 and 1.031 and 1.15 and 0.9594 and 0.9527 and 0.952 and 0.9619 and 1.007 and 0.8917 in assay [5] (Log[Drug] -9); 0.8441 and 1.142 and 1.077 and 0.9738 and 0.9345 and 0.9535 and 0.9143 and 1.094 and 0.8709 and 1.005 and 0.9652 and 0.9465 in assay [5] (Log[Drug] -9.52). The “Prostaglandin D2 receptor response, drug alone” value in assay [5] (Log[Drug] -10) is 1.003 (2×) and 1.01 (2×) and 1.029 and 0.9872 and 0.9954 and 1.0644 and 0.8654 and 0.9098 and 1.022 and 1.061; in assay [5] (Log[Drug] -10.52), 0.9812 and 1.108 and 1.015 and 0.9787 and 0.8969 and 1.051 and 1.01 and 0.8703 and 1.02 and 1.075 and 0.9632 and 0.9209; in assay [5] (Log[Drug] -11), 0.9785 and 0.8795 and 0.9671 and 1.005 and 0.997 and 1.114 and 0.9736 and 1.021 and 1.027 and 1.076 and 1.172 and 1.01.

For the compound `CCCCC[C@H](O)/C=C/[C@H]1[C@H](O)CC(=O)[C@@H]1C/C=C\CCCC(=O)O` [PGE2, prostaglandin E2, reference compound], the “EC80 of PGE2” value at wild-type EP4R and on EP4R [1] (agonist) was 0.008 µM throughout. On EP4R R316A mutant, the “activation of R316A mutant receptor” value was “no longer”.

Values taken from article PMC10700596 (Nature Communications, 2023).
